# Assay results taken from patent US9334500B2, “Methods and pharmaceutical compositions for treating cancer” (Agency for Science, Technology and Research, priority 2011, dated 2016).
# Read-outs that look alike come from different tables or passages of the source.
# How the values were obtained:
# MB231-LN xenograft tumor = test: MB231-LN subcutaneous xenograft tumor growth with Erlotinib treatment; type: in vivo, mice; details: 100 mg/kg oral gavage, 6 days per week for 4 weeks
# Experimental: All raw measurements were presented as mean±SEM (standard error of the mean). Comparisons of curves between primary tumor and BLI lung metastasis growth were performed using repeated Anova analysis. Survival analysis was performed using Kaplan-Meier estimator and log-rank test. The relative hazard ratio between different groups was calculated based on Cox-proportional hazards model and presented as HR (95% CI). Other comparisons were performed using unpaired two-sided Student's t-test without equal variance assumption or nonparametric Mann-Whitney test. All statistic calculations were performed with Excel, Stata 7 and EPI info. […] For in vivo Erlotinib treatment, both control cell and UBASH3B KD MB231-LN cells were subcutaneously injected into 6-8 week female nude mice at 5×10^6 cells, followed by treatment with vehicle or Erlotinib (LC lab, #E-4007) at 100 mg/kg by oral gavage with 6 consecutive days per week for 4 weeks after average tumor volume reached around 150 mm^3. Tumors were measured by calliper three times per week and tumors volume was calculated with formula: V=W*W*L/2.
# MB231-LN = test: Methylcellulose assay (anchorage-independent growth); details: for EC50: Homo sapiens
# [1] = test system: SUM159PT-R (Paclitaxel-resistant SUM159PT) cells; test: Cell viability assay after Paclitaxel treatment; type: cell-based; details: Paclitaxel-resistant SUM159PT with UBASH3B knockdown; 72 hrs
# Experimental: Cell viability assay was performed and EC50 of Paclitaxel in each sample was determined and shown at the top. UBASH3B knockdown efficiency was assessed by Western blotting, shown at the bottom. *P<0.05, paired two-tailed t-test. Error bars, mean+SEM.
# Cell viability was determined using CellTiter-Glo Luminescent Cell Viability Assay (Promega) as instructed by manufacturer's manual. 1000 cells were plated in 96-well plate and the readings were taken for 5 consecutive days using CellTiter-Glo kit (Promega).
# UBASH3B expression = test: Real-time PCR and Western blot analysis of UBASH3B expression; type: cell-based, human
# Experimental: (§1) All siRNA were designed by 1st Base Singapore except for ETS1 siRNA#1 which was referenced from a previously published paper^7. Oligo miRNA mimics and antagomirs were purchased from Dharmacon, Inc. (Chicago, Ill., USA). For transfection, 30 nM siRNAs, 15 nM miRNA mimics or 100 nM iRNA antagomirs were used to transfect cells. 48 h after transfection cell pellets were collected and subjected indicated assays.
# Total RNA including small RNAs was isolated using RNeasy Mini Kit (Qiagen). The microarray hybridization was performed using the Illumina HumanHT-12 V4.0 expression beadchip, and data analysis was performed using GeneSpring software from Agilent Technologies. Microarray data reported herein have been deposited at the NCBI Gene Expression Omnibus with the accession number GSE36693. Reverse transcription and quantitative PCR assays were performed using High Capacity cDNA Archive kit and KAPA SyBr Fast qPCR kit (KAPA Biosystems), respectively. TaqMan MicroRNA assays were used to quantify the level of mature miRNAs as previously described^8. Briefly, 10 ng of total RNA was reverse-transcribed and product was subjected to TaqMan stemloop miRNA assay (Applied Biosystems). RNU6B was used to normalize the data. For quantification of mRNA levels, 18S level was used as internal control. All reactions were analyzed in an Applied Biosystems 7500 Fast. Real-Time PCR system in 96-well plate format. Real-time primer sequences are listed in Supplementary Table 2.
# (§2) Western Blotting was performed as described previously^9. Anti-UBASH3B (ab34781) was purchased from Abcam. Anti-EGFR (cs2232), anti-CBL (cs2747) and anti-Pan phosphor-Tyr (cs9411) was purchased from Cell Signaling. Anti-ETS1 (sc350), anti-ZEB1 (sc-2538.8), and anti-ZEB2 (sc-48789) were obtained from Santa Cruz. Anti-Myc and anti-Actin were purchased from Roche Applied Science and Sigma-Aldrich, respectively.
# UBASH3B 3'-UTR = test: Luciferase reporter assay with UBASH3B 3'-UTR reporters; type: cell-based; details: wild type vs miR-200a binding site mutated reporters; 40 nM mimics
# Experimental: HCT116 cells were plated at a density of 5×10^4 cells per well in 24-well plate format and transfected with 10 ng of pMIR REPORT containing the respective miRNA responsive regions of UBASH3B 3′ UTR sequence, 40 nM of miRNA mimics and 5 ng of pRL null internal control simultaneously on the next day. At 48 h after transfection, the luciferase activities were measured using the Dual Luciferase system (Promega). All luciferase readings were first normalized to corresponding internal control pRL null Renilla luciferase readings. The resulting relative activities were further normalized to appropriate controls.
# ZEB1 and ZEB2 = test: Western blot of ZEB1 and ZEB2 expression; type: cell-based, human; details: MB231 and BT549 overexpressing mimics
# Experimental: as §1, §2
compound,measurement,setting,value
C#Cc1cccc(Nc2ncnc3cc(OCCOC)c(OCCOC)cc23)c1 [Erlotinib],xenograft tumor growth response to Erlotinib,MB231-LN xenograft tumor; UBASH3B depleted tumors,irresponsive
same,xenograft tumor growth response to Erlotinib,MB231-LN xenograft tumor; control tumors,marked growth inhibition
same,EC50,"MB231-LN; read-out: EC50 of Erlotinib, MB231-LN cells with UBASH3B depletion",3850 nM
same,EC50,"MB231-LN; read-out: EC50 of Erlotinib, MB231-LN control cells, without UBASH3B depletion",450 nM
same,sensitivity of cells to Erlotinib treatment,MB231-LN; UBASH3B-depleted MB231 with ectopic overexpression of EGFR,restored the sensitivity
CC(=O)O[C@H]1C(=O)[C@@]2(C)[C@H]([C@H](OC(=O)c3ccccc3)[C@]3(O)C[C@H](OC(=O)[C@H](O)[C@@H](NC(=O)c4ccccc4)c4ccccc4)C(C)=C1C3(C)C)[C@]1(OC(C)=O)CO[C@@H]1C[C@@H]2O [Paclitaxel],sensitivity to Paclitaxel treatment,[1],increased sensitivity
same,EC50,"MB231-LN; read-out: EC50 of Paclitaxel, cells with UBASH3B depletion",0.61 nM
same,EC50,"MB231-LN; read-out: EC50 of Paclitaxel, control cells, without UBASH3B depletion",4.53 nM
N#CC(=C(/N)Sc1ccccc1N)/C(C#N)=C(\N)Sc1ccccc1N [U0126],UBASH3B expression,"UBASH3B expression; MB231 cells, 5 μM, real-time PCR, indicated time points",decrease the UBASH3B expression in a time-dependent manner
"miR-200a: oligo miRNA mimic purchased from Dharmacon (UAACACUGUCUGGUAACGAUGU; listed as RNA, chemistry not given here)",UBASH3B expression,"UBASH3B expression; BT549 cells, miR-200a overexpression combined with ETS1 knockdown",more pronounced downregulation
same,UBASH3B mRNA and protein expression,UBASH3B expression; enforced expression of mimics in invasive breast and prostate cancer cells,able to reduce
same,targeting and inhibition of UBASH3B 3'-UTR reporter,UBASH3B 3'-UTR,direct and specific targeting and inhibition
same,expression of ZEB1 and ZEB2,ZEB1 and ZEB2,could repress
